Reference: patent US20070128217A1 (priority 2003, published 2007)

Tests used:
[1] = test system: antibodies in sera from SARS patients (sera 1a, 1b, 2, 6, 37, 62, London, SARS-yellow, SARS-green); format: binding, human; design: Binding of serum 6 to linear peptides of protein X1 of SARS-CoV Urbani / Binding of serum 37 to linear peptides of protein X1 of SARS-CoV Urbani / Binding of serum 6 to looped/cyclic peptide (PEPSCAN-ELISA) / Binding of serum 37 to looped/cyclic peptide (PEPSCAN-ELISA) / Binding of serum 37 to looped/cyclic peptides of protein X1 of SARS-CoV Urbani / Binding of serum 6 to linear peptides of protein X2 / Binding of serum 37 to linear peptides of protein X2 / Binding of serum 37 to looped/cyclic peptides of protein X2 of SARS-CoV Urbani / Binding of serum 6 to linear peptides of protein M of SARS-CoV Urbani / Binding of serum 37 to linear peptides of protein M of SARS-CoV Urbani / Binding of serum 6 to looped/cyclic peptides of protein M of SARS-CoV Urbani / Binding of serum 37 to looped/cyclic peptides of protein M of SARS-CoV Urbani / Binding of serum 6 to linear peptides of protein X3 of SARS-CoV Urbani / Binding of serum 37 to linear peptides of protein X3 of SARS-CoV Urbani / Binding of serum 37 to looped/cyclic peptides of protein X3 of SARS-CoV Urbani / Binding of serum 6 to linear peptides of protein X4 of SARS-CoV Urbani / Binding of serum 37 to linear peptides of protein X4 of SARS-CoV Urbani / Binding of serum 37 to looped/cyclic peptides of protein X4 of SARS-CoV Urbani / Binding of serum 6 to linear peptides of protein X5 of SARS-CoV Urbani / Binding of serum 37 to linear peptides of protein X5 of SARS-CoV Urbani / Binding of serum 37 to looped/cyclic peptides of protein X5 of SARS-CoV Urbani / Binding of serum 6 to linear peptides of protein N of SARS-CoV Urbani / Binding of serum 37 to linear peptides of protein N of SARS-CoV Urbani / Binding of serum 6 to linear peptide (PEPSCAN-ELISA) / Binding of serum 1a to looped/cyclic peptides of protein N of SARS-CoV Urbani / Binding of serum 1b to looped/cyclic peptides of protein N of SARS-CoV Urbani / Binding of serum 2 to looped/cyclic peptides of protein N of SARS-CoV Urbani / Binding of serum 6 to looped/cyclic peptides of protein N of SARS-CoV Urbani / Binding of serum 37 to looped/cyclic peptides of protein N of SARS-CoV Urbani / Binding of serum 62 to looped/cyclic peptides of protein N of SARS-CoV Urbani / Binding of serum London to looped/cyclic peptides of protein N of SARS-CoV Urbani / Binding of serum SARS-green to looped/cyclic peptides of protein N of SARS-CoV Urbani: unit not given here
[2] = test system: control sera (pooled serum of ten healthy LUMC hospital workers; commercial negative donor pooled serum from the Dutch bloodbank); format: binding, human; design: Binding of Control serum LUMC to linear peptides / Binding of Control serum Blood-bank to linear peptides / Binding of Control serum LUMC to looped peptides / Binding of Control Serum Blood-Bank to Looped peptides / Binding of Control serum LUMC to linear peptides of the protein M of SARS-CoV Urbani / Binding of Control serum Blood-bank to linear peptides of the protein M of SARS-CoV Urbani / Binding of Control serum LUMC to looped peptides of the protein M of SARS-CoV Urbani / Binding of Control Serum Blood-Bank to Looped peptides of the protein M of SARS-CoV Urbani: unit not given here
[3] = test system: rabbit serum obtained by immunizing a rabbit with the SARS-CoV strain Frankfurt 1; format: binding; design: Binding of a rabbit serum to linear peptides / Binding of a rabbit serum to looped peptides / Rabbit serum linear peptides / Rabbit serum looped peptides / Binding of a rabbit serum to linear peptides of protein N of SARS-CoV Urbani (Rabbit serum linear peptides) / Binding of a rabbit serum to looped/cyclic peptides of protein N of SARS-CoV Urbani (Rabbit serum looped peptides): unit not given here

Row | Sequence | Binding of serum 1a to linear peptides of protein X4 of SARS-CoV Urbani [1] | Binding of serum 1a to looped/cyclic peptides of protein X4 of SARS-CoV Urbani [1] | Binding of serum 1b to linear peptides of protein X4 of SARS-CoV Urbani [1] | Binding of serum 1b to looped/cyclic peptides of protein X4 of SARS-CoV Urbani [1] | Binding of serum 2 to linear peptides of protein X4 of SARS-CoV Urbani [1] | Binding of serum 2 to looped/cyclic peptides of protein X4 of SARS-CoV Urbani [1] | Binding of serum 6 to linear peptides of protein X4 of SARS-CoV Urbani [1] | Binding of serum 6 to looped/cyclic peptides of protein X4 of SARS-CoV Urbani [1] | Binding of serum 37 to linear peptides of protein X4 of SARS-CoV Urbani [1] | Binding of serum 37 to looped/cyclic peptides of protein X4 of SARS-CoV Urbani [1] | Binding of serum 62 to linear peptides of protein X4 of SARS-CoV Urbani [1] | Binding of serum 62 to looped/cyclic peptides of protein X4 of SARS-CoV Urbani [1] | Binding of serum London to linear peptides of protein X4 of SARS-CoV Urbani [1] | Binding of serum London to looped/cyclic peptides of protein X4 of SARS-CoV Urbani [1] | Binding of serum SARS-green to linear peptides of protein X4 of SARS-CoV Urbani [1] | Binding of serum SARS-green to looped/cyclic peptides of protein X4 of SARS-CoV Urbani [1] | Binding of Control Serum Blood-Bank to Looped peptides [2] | Binding of Control serum Blood-bank to linear peptides [2] | Binding of Control serum LUMC to linear peptides [2] | Binding of Control serum LUMC to looped peptides [2] | also measured
1 | YQLRARSVSPKLFIR | 0.7 | 0.7 | 0.6 | 0.4 | 0.6 | 0.6 | 0.7 | 1.2 | 0.8 | 0.7 | 0.7 | 0.6 | 0.8 | 1.4 | 0.7 | 0.4 | 0.7 | 0.6 | 0.6 | 0.7 | Binding of serum SARS-yellow to linear peptides of protein X4 of SARS-CoV Urbani [1]: 0.6; Binding of serum SARS-yellow to looped/cyclic peptides of protein X4 of SARS-CoV Urbani [1]: 0.9; Recognition of the peptide by the rabbit serum [3]: recognized
2 | YSPLFLIVAALVFLI | 0.7 | 0.7 | 0.3 | 0.3 | 0.5 | 0.6 | 0.5 | 0.4 | 0.7 | 0.6 | 0.7 | 0.6 | 0.7 | 0.3 | 0.5 | 0.6 | 0.4 | 0.6 | 0.5 | 0.7 | Binding of serum SARS-yellow to linear peptides of protein X4 of SARS-CoV Urbani [1]: 0.4; Binding of serum SARS-yellow to looped/cyclic peptides of protein X4 of SARS-CoV Urbani [1]: 0.4; Rabbit serum linear peptides [3]: 0.3; Rabbit serum looped peptides [3]: 0.5
3 | YTQSTALQELLIQQW |  |  |  |  |  |  |  |  |  |  |  |  |  |  |  |  | 0.6 | 0.5 | 0.4 | 0.6 | Binding of serum 1a to linear peptides of protein X2 [1]: 0.6; Binding of serum 1a to looped/cyclic peptides of protein X2 of SARS-CoV Urbani [1]: 0.6; Binding of serum 1b to linear peptides of protein X2 [1]: 0.5; Binding of serum 1b to looped/cyclic peptides of protein X2 of SARS-CoV Urbani [1]: 0.5; Binding of serum 2 to linear peptides of protein X2 [1]: 0.4; Binding of serum 2 to looped/cyclic peptides of protein X2 of SARS-CoV Urbani [1]: 0.5; Binding of serum 6 to linear peptides of protein X2 [1]: 0.4; Binding of serum 6 to looped/cyclic peptides of protein X2 of SARS-CoV Urbani [1]: 0.2; Binding of serum 37 to linear peptides of protein X2 [1]: 0.5; Binding of serum 37 to looped/cyclic peptides of protein X2 of SARS-CoV Urbani [1]: 0.4; Binding of serum 62 to linear peptides of protein X2 [1]: 0.6; Binding of serum 62 to looped/cyclic peptides of protein X2 of SARS-CoV Urbani [1]: 0.6; Binding of serum London to linear peptides of protein X2 [1]: 0.5; Binding of serum London to looped/cyclic peptides of protein X2 of SARS-CoV Urbani [1]: 0.2; Binding of serum SARS-green to linear peptides of protein X2 [1]: 0.6; Binding of serum SARS-green to looped/cyclic peptides of protein X2 of SARS-CoV Urbani [1]: 0.3; Binding of serum SARS-yellow to linear peptides of protein X2 [1]: 0.6; Binding of serum SARS-yellow to looped/cyclic peptides of protein X2 of SARS-CoV Urbani [1]: 0.3; Binding of a rabbit serum to linear peptides [3]: 0.3; Binding of a rabbit serum to looped peptides [3]: 0.3
4 | YVVVHGYFTEVYYQL |  |  |  |  |  |  |  |  |  |  |  |  |  |  |  |  | 0.5 | 0.4 | 1.0 | 0.9 | Binding of serum 1a to linear peptides of protein X1 of SARS-CoV Urbani [1]: 0.7; Binding of serum 1a to looped/cyclic peptides of protein X1 of SARS-CoV Urbani [1]: 0.6; Binding of serum 1b to linear peptides of protein X1 of SARS-CoV Urbani [1]: 0.6; Binding of serum 1b to looped/cyclic peptides of protein X1 of SARS-CoV Urbani [1]: 0.5; Binding of serum 2 to linear peptides of protein X1 of SARS-CoV Urbani [1]: 0.5; Binding of serum 2 to looped/cyclic peptides of protein X1 of SARS-CoV Urbani [1]: 0.5; Binding of serum 6 to linear peptides of protein X1 of SARS-CoV Urbani [1]: 0.3; Binding of serum 6 to looped/cyclic peptides of protein X1 of SARS-CoV Urbani [1]: 0.3; Binding of serum 37 to linear peptides of protein X1 of SARS-CoV Urbani [1]: 0.5; Binding of serum 37 to looped/cyclic peptides of protein X1 of SARS-CoV Urbani [1]: 0.4; Binding of serum 62 to linear peptides of protein X1 of SARS-CoV Urbani [1]: 0.4; Binding of serum 62 to looped/cyclic peptides of protein X1 of SARS-CoV Urbani [1]: 0.4; Binding of serum London to linear peptides of protein X1 of SARS-CoV Urbani [1]: 0.2; Binding of serum London to looped/cyclic peptides of protein X1 of SARS-CoV Urbani [1]: 0.2; Binding of serum SARS-green to linear peptides of protein X1 of SARS-CoV Urbani [1]: 0.1; Binding of serum SARS-green to looped/cyclic peptides of protein X1 of SARS-CoV Urbani [1]: 0.2; Binding of serum SARS-yellow to linear peptides of protein X1 of SARS-CoV Urbani [1]: 0.2; Binding of serum SARS-yellow to looped/cyclic peptides of protein X1 of SARS-CoV Urbani [1]: 0.4; Binding of a rabbit serum to linear peptides [3]: 0.1; Binding of a rabbit serum to looped peptides [3]: 0.5
